Test results: US20060258561A1, “Novel NPH insulin preparations” (Novo Nordisk A/S, priority 2003, published 2006)
Read-outs that look alike come from different tables or passages of the source.

Experiments:
[1] = biological target: T1, R-state His^B10 Zn^2+ site of insulin R6 hexamers (Homo sapiens, UniProt P01308); assay: TZD-assay: fluorescence displacement of 5-(4-dimethylaminobenzylidene)thiazolidine-2,4-dione from insulin R6 hexamers; format: binding
T1 construct: human insulin comprising additional amino acids, i.e. more than 51 amino acids
T1 sequence (P01308 25-54 limits assumed): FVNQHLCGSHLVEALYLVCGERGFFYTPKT
T1 sequence (P01308 90-110 limits assumed): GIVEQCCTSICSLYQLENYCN
Experimental: However, ligands with substantially higher affinity for the His^B10 Zn^2+-site may be found and characterized by using a fluorescence based competition assay which is based on the displacement of 5-(4-dimethylaminobenzylidene)-thiazolidine-2,4-dione from the R-state His^B10 Zn^2+-site by the incoming ligand in question.
TZD-Assay for Quantitation of Ligands Binding to the R-State His^B10 Zn^2+:
The binding affinity of ligands to the metal site of insulin R6 hexamers are measured in a fluorescense based displacement assay. The fluorescence of 5-(4-dimethylaminobenzylidene)thiazolidine-2,4-dione (TZD) which is a ligand for the metal site of insulin R6 is quenched upon displacement from the metal site to the solution. Titration of a ligand to a stock solution of insulin R6 hexamers with this compound mounted in the metal site allows the binding affinity of these ligands to be determined measuring the fluorescence at 455 nm upon excitation at 410 nm.
Stock solution: 0.02 mM human insulin, 0.007 mM Zn-acetate, 40 mM phenol, 0.01 mM TZD in 50 mM tris buffer adjusted to pH=8.0 with NaOH/ClO4^−.
The ligand is dissolved in DMSO to a concentration of 5 mM and added in aliquots to the stock solution to final concentrations of 0-250 μM.
Fluorescence measurements were carried out on a Perkin Elmer Spectrofluorometer LS50B. The main absorption band was excited at 410 nm and emission was detected at 455 nm. The resolution was 10 nm and 2.5 nm for excitation and emission, respectively.
This equation is fitted to the datapoints ΔF(455 nm))=ΔFmax*[ligand]free/(KD(app)*(1+[TZD]/KTZD)+[ligand]free)) KD(app) is the apparent dissociation constant and Fmax is the fluorescence at maximal ligand concentration. The value of KTZD is measured separately to 230 nM
Two different fitting-procedures can be used. One in which both parameters, KD(app) and Fmax, are adjusted to best fit the data and a second in which the value of Fmax is fixed (Fmax=1) and only KD(app) is adjusted. The given data are from the second fitting procedure. The Solver module of Microsoft Excel can be used to generate the fits from the datapoints.

[2] = NPH-insulin crystallisation in the presence of ligand (co-crystallisation); format: physicochemical; conditions: human insulin NPH crystals grown overnight with ligand equimolar to Zn2+, pH 7.3
Experimental: Preparation of NPH-insulin in the presence of ligands for the His^B10 Zn^2+-site of the R-state insulin hexamer.
Preparations are prepared by mixing equal volumes of the following two solutions: a) 1.2 mM human insulin, 0.46 mM Zn^2+, 28 mM phosphate, 1.6% glycerol, 0.15% m-cresol, 0.065% phenol, and 0.46 mM ligand for the HisB10 Zn^2+-site (see below), optionally the ligand was added as a 9.2 mM DMSO solution, pH 7.5; and b) 0.636 mg/mL protamine sulphate 1.6% glycerol, 0.15% m-cresol, 0.065% phenol, pH 6. The NPH-crystals grow overnight from the resulting suspension, pH 7.3.

[3] = biological target: T2, metal site of insulin R6 hexamers (Homo sapiens, UniProt P01308); conditions: taken from Huang et al., 1997, Biochemistry 36, 9878-9888; read-out: K4H3N; cited from earlier work
T2 construct: human insulin comprising additional amino acids, i.e. more than 51 amino acids
T2 sequence (P01308 25-54 limits assumed): as the sequence (P01308 25-54 limits assumed) above

[4] = human insulin R6 hexamers, 40 mM phenol, tris pH 8.0, apparent KD, fit with Fmax fixed, read-out: Kd as observed in the 5-(4-imethylaminobenzylidene)-thiazolidine-2,4-dione assay

Row | Structure (SMILES) | Kd [1, 4] | NPH-insulin crystal size [2] | melting point | also measured
1 | O=C(O)COc1ccc(/C=C2\SC(=O)NC2=O)c2ccccc12 [[4-(2,4-Dioxothiazolidin-5-ylidenemethyl)-naphthalen-1-yloxy]-acetic acid] | 0.011 µM | 2-10 μ | – | –
2 | O=C1NC(=O)/C(=C/c2cc3ccccc3[nH]c2=O)S1 [Example 242, 5-(2-Oxo-1,2-dihydroquinolin-3-ylmethylene)thiazolidine-2,4-dione] | – | – | 338 to 347 °C | –
3 | O=C(O)c1ccc(Cn2c3ccccc3c3cc(-c4nnn[nH]4)ccc32)cc1 [4-[3-(1H-Tetrazol-5-yl)-carbazol-9-ylmethyl]-benzoic acid] | 0.174 µM | <2 μ | – | –
4 | CC(/C=C1\SC(=O)NC1=O)=C\c1ccccc1 [Example 240, 5-(2-Methyl-3-phenylallylidene)thiazolidine-2,4-dione] | – | – | 203 to 210 °C | –
5 | Cc1[nH]c2ccccc2c1/C=C1\SC(=O)NC1=O [5-(2-methyl-1H-indol-3-ylmethylene) thiazolidine-2,4-dione] | < 0.01 µM | 2-6 μ | – | –
6 | Cc1cc(/C=C2\SC(=O)NC2=O)c(C)c2c1[nH]c1ccccc12 [5-(1,4-Dimethyl-9H-carbazol-3-ylmethylene)-thiazolidine-2,4-dione] | < 0.01 µM | <2 μ | – | –
7 | O=C1NC(=O)/C(=C/c2cc3ccccc3o2)S1 [Example 238, 5-Benzofuran-2-ylmethylenethiazolidine-2,4-dione] | – | – | 265 to 266 °C | –
8 | O=C1NC(=O)/C(=C/c2cccc3ccccc23)S1 [5-Napthalen-1-ylmethylene-thiazolidine-2,4-dione] | 0.021 µM | 4-10 μ | – | –
9 | c1ccc(-c2ccc(Cn3ccc4cc(-c5nnn[nH]5)ccc43)cc2)cc1 [1-(4-Phenylbenzyl)-5-(1H-tetrazol-5-yl)-1H-indole] | 0.038 µM | <2 μ | – | –
10 | COc1cc(O)cc(OC)c1/C=C1\SC(=O)NC1=O [Example 234, 5-(4-Hydroxy-2,6-dimethoxybenzylidene)thiazolidine-2,4-dione] | – | – | 331 to 333 °C | –
11 | O=C(O)c1cc2cc(Br)ccc2cc1O [7-Bromo-3-hydroxy-2-napthoic acid] | 0.264 µM | 5-20 μ | – | –
12 | COc1cc(OCc2c(F)cccc2[N+](=O)[O-])cc(OC)c1/C=C1\SC(=O)NC1=O [Example 237, 5-[4-(2-Fluoro-6-nitrobenzyloxy)-2,6-dimethoxybenzylidene]thiazolidine-2,4-dione] | – | – | 255 to 256 °C | –
13 | Cc1cccc(C)c1/C=C1\SC(=O)NC1=O [Example 235, 5-(2,6-Dimethylbenzylidene)thiazolidine-2,4-dione] | – | – | 104 to 105 °C | –
14 | O=C1NC(=O)C(=Cc2c[nH]c3ccc([N+](=O)[O-])cc23)S1 [Example 199, 5-(5-Nitro-1H-indol-3-ylmethylene)thiazolidine-2,4-dione] | – | – | 330 to 333 °C | –
15 | COc1cccc(OC)c1/C=C1\SC(=O)NC1=O [Example 236, 5-(2,6-Dimethoxybenzylidene)thiazolidine-2,4-dione] | – | – | 241 to 242 °C | –
16 | O=C1NC(=O)/C(=C/c2ccc3cc(O)ccc3c2)S1 [Example 171, 5-(6-Hydroxy-2-naphthylmethylene) thiazolidine-2,4-dione] | – | – | 310 to 314 °C | –
17 | CN(C)c1ccc(C=C2SC(O)=NC2=O)cc1 [TZD, 5-(4-dimethylaminobenzylidene)-thiazolidine-2,4-dione, reference compound] | – | – | – | Kd ([1]; measured separately, read-out: KTZD): 0.23 µM
18 | c1cc(COc2ccc3ccccc3c2)cc(-c2nnn[nH]2)c1 [Example 572, 5-(3-(Naphthalen-2-yloxymethyl)-phenyl)-1H-tetrazole] | – | – | 200 to 202 °C | –
19 | O=C(O)c1ccc(O)c([N+](=O)[O-])c1 [Example 4H3N, 4-hydroxy-3-nitrobenzoic acid] | – | – | – | Kd [3]: 50 µM
20 | COc1cc(/C=C2\SC(=O)NC2=O)cc(I)c1O [Example 167, 5-(4-Hydroxy-3-iodo-5-methoxybenzylidene)thiazolidine-2,4-dione] | – | – | 256 °C | –
21 | O=C1NC(=O)C(Cc2cccc3ccccc23)S1 (centres unmarked) [5-Napthalen-1-ylmethyl-thiazolidine-2,4-dione] | 0.099 µM | 2 μ | – | –
22 | c1ccc(Cn2c3ccccc3c3cc(-c4nnn[nH]4)ccc32)cc1 [9-Benzyl-3-(1H-tetrazol-5-yl)-9H-carbazole] | 0.068 µM | 1-3 μ | – | –
23 | CN(C)c1ccc(/C=C/C=C2\SC(=O)NC2=O)cc1 [Example 239, 5-[3-(4-Dimethylaminophenyl)allylidene]thiazolidine-2,4-dione] | – | – | 259 to 263 °C | –
